Measured values: patent US10087469B2, “Method of producing sugar solution, sugar solution, and method of producing ethanol” (Toray Industries, Inc., priority 2012, dated 2018)

Test system: Pichia stipitis NBRC1687 strain
Assay: Growth test of Pichia stipitis using model sugar solution (YPDX medium with additive)
Type: cell-based
Set-up: Xylose concentration in the medium / Glucose concentration in the medium: unit not given here
Settings: for growth inhibitory effect compared with coumaric acid: particularly in consumption rate of glucose
Description: In main culture of “A. Growth Test of Pichia Stipitis using Model Sugar solution” described below, any one of coumaramide, coumaric acid, and ferulamide was added in a concentration of 2 ppm to 200 ppm as an additive in a medium, and the medium was subjected to a growth test. As a positive control, a YPDX medium free of an additive was subjected to the same test.
A. Growth Test of Pichia Stipitis Using Model Sugar Solution
A Pichia stipitis NBRC1687 strain was statically cultured at 25° C. in a YPDX agar medium produced by adding 2% agar to a YPDX medium shown in Table 3 below (prepreculture). One of colonies formed on the agar medium was inoculated into 10 mL of the YPDX medium with a platinum loop, and cultured at 25° C. and 120 spm in a test tube with a volume of 20 mL for 48 hours under shaking (preculture). One mL of medium after the preculture was added to 9 mL of YPDX medium, and culture was further continued at 25° C. and 60 spm in a test tube with a volume of 20 mL (main culture). 0, 24, and 48 hours after initiation of the culture, sampling was performed, the monosaccharide concentration and the absorbance (OD660) were measured. Thus, growth of fungus bodies was observed.

[1] = additive 2 ppm, 0 h of main culture
[2] = additive 2 ppm, 24 h of main culture
[3] = additive 2 ppm, 48 h of main culture
[4] = additive 20 ppm, 0 h of main culture
[5] = additive 20 ppm, 24 h of main culture
[6] = additive 20 ppm, 48 h of main culture
[7] = additive 200 ppm, 0 h of main culture
[8] = additive 200 ppm, 24 h of main culture
[9] = additive 200 ppm, 48 h of main culture

COc1cc(/C=C/C(N)=O)ccc1O [Ferulamide, ferulamide]
fermentation inhibitor in the culture of Pichia stipitis: fermentation inhibitors | Glucose concentration in the medium [1]: 10 | Xylose concentration in the medium [1]: 10 | Glucose concentration in the medium [2]: 2.3 | Xylose concentration in the medium [2]: 2.3 | Glucose concentration in the medium [3]: 0 | Xylose concentration in the medium [3]: 0 | Glucose concentration in the medium [4]: 10 | Xylose concentration in the medium [4]: 10 | Glucose concentration in the medium [5]: 6.6 | Xylose concentration in the medium [5]: 9.3 | Glucose concentration in the medium [6]: 0 | Xylose concentration in the medium [6]: 0 | Glucose concentration in the medium [7]: 10 | Xylose concentration in the medium [7]: 10 | Glucose concentration in the medium [8]: 6.7 | Xylose concentration in the medium [8]: 9.7 | Glucose concentration in the medium [9]: 0 | Xylose concentration in the medium [9]: 5.2 | growth inhibitory effect compared with coumaric acid: superior to coumaric acid in growth inhibitory

O=C(O)/C=C/c1ccc(O)cc1 [Coumaric Acid, coumaric acid]
Glucose concentration in the medium [1]: 10 | Xylose concentration in the medium [1]: 10 | Glucose concentration in the medium [2]: 2.6 | Xylose concentration in the medium [2]: 2.6 | Glucose concentration in the medium [3]: 0 | Xylose concentration in the medium [3]: 0 | Glucose concentration in the medium [4]: 10 | Xylose concentration in the medium [4]: 10 | Glucose concentration in the medium [5]: 2.6 | Xylose concentration in the medium [5]: 8.7 | Glucose concentration in the medium [6]: 0 | Xylose concentration in the medium [6]: 0 | Glucose concentration in the medium [7]: 10 | Xylose concentration in the medium [7]: 10 | Glucose concentration in the medium [8]: 3.6 | Xylose concentration in the medium [8]: 9.2 | Glucose concentration in the medium [9]: 0 | Xylose concentration in the medium [9]: 0

NC(=O)/C=C/c1ccc(O)cc1 [Coumaramide, coumaramide]
fermentation inhibitor in the culture of Pichia stipitis: fermentation inhibitors | Glucose concentration in the medium [1]: 10 | Xylose concentration in the medium [1]: 10 | Glucose concentration in the medium [2]: 2.3 | Xylose concentration in the medium [2]: 2.3 | Glucose concentration in the medium [3]: 0 | Xylose concentration in the medium [3]: 0 | Glucose concentration in the medium [4]: 10 | Xylose concentration in the medium [4]: 10 | Glucose concentration in the medium [5]: 4.82 | Xylose concentration in the medium [5]: 9.7 | Glucose concentration in the medium [6]: 0 | Xylose concentration in the medium [6]: 0 | Glucose concentration in the medium [7]: 10 | Xylose concentration in the medium [7]: 10 | Glucose concentration in the medium [8]: 5.9 | Xylose concentration in the medium [8]: 9.5 | Glucose concentration in the medium [9]: 0 | Xylose concentration in the medium [9]: 0.4 | growth inhibitory effect compared with coumaric acid: superior to coumaric acid in growth inhibitory
